Patent US20250223268A1, “4-Methylsulfonylbenzamide Compound, Preparation Method, Herbicidal Composition And Use” (Jiangsu Flag Chemical Industry Co., Ltd., priority 2022, published 2025)

Experiments:
Assay in all cases: Greenhouse herbicidal activity assay, post-emergence
Assay type in all cases: in vivo
Settings in all cases: Post-emergence test, rate 150 g a.i./hm^2; grade by fresh weight inhibition rate
[1] = system: Leptochloa chinensis
In short: (§1)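 Scores reflect fresh weight inhibition assessed 14-21 days after treatment, with grade A meaning ≥80% to 100% and grade E meaning <20%. Plants, raised in nutrient-soil pots inside a growth chamber, were sprayed on the foliage at the 3-6 leaf stage.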

[2] = system: Cyperus iria
In short: as §1

[3] = system: Eclipta prostrata
In short: as §1

[4] = system: Echinochloa crusgalli
In short: as §1

[5] = system: Digitaria sanguinalis
In short: as §1

SMILES | Control efficacy grade, Leptochloa chinensis [1] | Control efficacy grade, Cyperus iria [2] | Control efficacy grade, Eclipta prostrata [3] | Control efficacy grade, Echinochloa crusgalli [4] | Control efficacy grade, Digitaria sanguinalis [5]
CCC(C)Sc1c(S(C)(=O)=O)ccc(C(=O)Nc2nnco2)c1Cl (racemic) [Compound 3-282] | A (Fresh weight inhibition rate≥80% to 100%) | A (Fresh weight inhibition rate≥80% to 100%) | A (Fresh weight inhibition rate≥80% to 100%) | A (Fresh weight inhibition rate≥80% to 100%) | B (Fresh weight inhibition rate≥260% to <80%)
Cn1nnnc1NC(=O)c1ccc(S(C)(=O)=O)c([S+]([O-])C2CC2)c1Cl (racemic) [Compound 1-33] | A (Fresh weight inhibition rate≥80% to 100%) | A (Fresh weight inhibition rate≥80% to 100%) | A (Fresh weight inhibition rate≥80% to 100%) | A (Fresh weight inhibition rate≥80% to 100%) | A (Fresh weight inhibition rate≥80% to 100%)
CS(=O)(=O)c1ccc(C(=O)Nc2nnco2)c(Cl)c1SC1CCC1 [Compound 3-308] | A (Fresh weight inhibition rate≥80% to 100%) | A (Fresh weight inhibition rate≥80% to 100%) | A (Fresh weight inhibition rate≥80% to 100%) | A (Fresh weight inhibition rate≥80% to 100%) | A (Fresh weight inhibition rate≥80% to 100%)
C=CCSc1c(S(C)(=O)=O)ccc(C(=O)Nc2ncnn2C)c1Cl [Compound 2-67] | B (Fresh weight inhibition rate≥260% to <80%) | A (Fresh weight inhibition rate≥80% to 100%) | A (Fresh weight inhibition rate≥80% to 100%) | B (Fresh weight inhibition rate≥260% to <80%) | B (Fresh weight inhibition rate≥260% to <80%)
Cc1nnc(NC(=O)c2ccc(S(C)(=O)=O)c(SCCC#N)c2Cl)o1 [Compound 3-197] | A (Fresh weight inhibition rate≥80% to 100%) | A (Fresh weight inhibition rate≥80% to 100%) | A (Fresh weight inhibition rate≥80% to 100%) | A (Fresh weight inhibition rate≥80% to 100%) | A (Fresh weight inhibition rate≥80% to 100%)
Cc1nnc(NC(=O)c2ccc(S(C)(=O)=O)c([S+]([O-])CC(C)C)c2Cl)o1 (racemic) [Compound 3-28] | A (Fresh weight inhibition rate≥80% to 100%) | A (Fresh weight inhibition rate≥80% to 100%) | A (Fresh weight inhibition rate≥80% to 100%) | A (Fresh weight inhibition rate≥80% to 100%) | A (Fresh weight inhibition rate≥80% to 100%)
CCc1nnc(NC(=O)c2ccc(S(C)(=O)=O)c([S+]([O-])C3CCC3)c2Cl)o1 (racemic) [Compound 3-425] | A (Fresh weight inhibition rate≥80% to 100%) | A (Fresh weight inhibition rate≥80% to 100%) | A (Fresh weight inhibition rate≥80% to 100%) | A (Fresh weight inhibition rate≥80% to 100%) | A (Fresh weight inhibition rate≥80% to 100%)
CCC[S+]([O-])c1c(S(C)(=O)=O)ccc(C(=O)Nc2nnc(C)o2)c1Cl (racemic) [Compound 3-2] | A (Fresh weight inhibition rate≥80% to 100%) | A (Fresh weight inhibition rate≥80% to 100%) | A (Fresh weight inhibition rate≥80% to 100%) | A (Fresh weight inhibition rate≥80% to 100%) | A (Fresh weight inhibition rate≥80% to 100%)
